From patent US20230302150A1, “ANTIBODY-TLR AGONIST CONJUGATES, METHODS AND USES THEREOF” (Ambrx, Inc., priority 2020, published 2023) come the findings set out here.

Each structure is given as a SMILES string. pEC50: −log10 of the molar value.

In one assay the target is T1, hTLR7 (Homo sapiens, UniProt Q9NYK1).
T1 construct: expressed in transfected cells; host or cells: HEK-Blue hTLR7 reporter cell line
T1 sequence (Q9NYK1 27-1049): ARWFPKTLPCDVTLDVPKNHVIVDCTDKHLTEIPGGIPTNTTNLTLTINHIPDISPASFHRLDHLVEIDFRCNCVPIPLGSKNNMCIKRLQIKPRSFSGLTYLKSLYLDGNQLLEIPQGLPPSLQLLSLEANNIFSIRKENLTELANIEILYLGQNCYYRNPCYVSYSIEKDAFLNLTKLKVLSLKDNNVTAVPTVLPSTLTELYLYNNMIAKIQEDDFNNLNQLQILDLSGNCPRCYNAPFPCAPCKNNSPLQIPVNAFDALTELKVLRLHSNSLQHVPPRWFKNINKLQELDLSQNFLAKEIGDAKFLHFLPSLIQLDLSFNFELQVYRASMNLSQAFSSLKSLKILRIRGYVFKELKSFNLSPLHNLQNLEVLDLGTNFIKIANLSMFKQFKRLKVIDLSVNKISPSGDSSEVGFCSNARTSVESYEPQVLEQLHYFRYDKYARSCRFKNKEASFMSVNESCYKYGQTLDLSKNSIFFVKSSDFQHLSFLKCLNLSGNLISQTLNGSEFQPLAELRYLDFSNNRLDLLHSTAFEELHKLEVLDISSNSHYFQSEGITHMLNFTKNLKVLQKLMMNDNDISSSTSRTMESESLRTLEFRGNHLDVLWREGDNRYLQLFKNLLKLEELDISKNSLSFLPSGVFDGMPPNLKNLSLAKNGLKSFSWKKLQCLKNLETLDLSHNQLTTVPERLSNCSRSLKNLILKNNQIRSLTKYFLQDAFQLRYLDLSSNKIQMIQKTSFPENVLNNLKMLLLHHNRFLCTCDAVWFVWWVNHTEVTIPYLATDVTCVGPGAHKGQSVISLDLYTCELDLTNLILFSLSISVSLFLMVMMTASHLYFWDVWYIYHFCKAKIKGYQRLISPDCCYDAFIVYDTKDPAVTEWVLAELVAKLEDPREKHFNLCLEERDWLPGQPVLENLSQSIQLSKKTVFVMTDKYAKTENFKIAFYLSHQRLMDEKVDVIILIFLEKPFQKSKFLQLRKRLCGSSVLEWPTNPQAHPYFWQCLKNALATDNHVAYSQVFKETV
Description: HEK-Blue hTLR7 reporter assay (NF-kB-induced SEAP, Quanti-Blue). Type of assay: cell-based.
Settings: not given
How it is done:
HEK-Blue™ hTLR7 cells were incubated in HEK-Blue™ Detection medium and stimulated with increasing concentrations of TLR7 or TLR8 or TLR7/8 agonists. […] The EC50 was determined from dose-response curve using Prism Software.
As to `CCCCOc1nc(N)c2[nH]c(=O)n(Cc3ccc(CN4CCC(CCNC(=O)c5ccc(N)c(OC)c5)CC4)cc3)c2n1` [AXC-895, 4-amino-N-(2-(1-(4-((6-amino-2-butoxy-8-oxo-7H-purin-9(8H)-yl)methyl)benzyl)piperidin-4-yl)ethyl)-3-methoxybenzamide], the “TLR7 activity (comparison in words)” value was “highest potency among different payloads tested”.

The same assay, now with this note: Table 11, TLR7 activities; read-out: EC50.
In the case of `CCCCOc1nc(N)c2[nH]c(=O)n(Cc3ccc(CN4CCC(CCNC(=O)C(C)(C)C)CC4)cc3)c2n1` [AXC-885, N-(2-(1-(4-((6-amino-2-butoxy-8-oxo-7H-purin-9(8H)-yl)methyl)benzyl)piperidin-4-yl)ethyl)pivalamide], the pEC50 is 7.95.
Turning to `CCCCOc1nc(N)c2[nH]c(=O)n(Cc3ccc(CN4CCC(CCNC(C)=O)CC4)cc3)c2n1` [AXC-886, N-(2-(1-(4-((6-amino-2-butoxy-8-oxo-7H-purin-9(8H)-yl)methyl)benzyl)piperidin-4-yl)ethyl)acetamide], the pEC50 was 7.78.
On the same count and under the same terms, the figure for `CCCCOc1nc(N)c2[nH]c(=O)n(Cc3ccc(CN4CCC(CCNC(=O)CCC(N)CCC(=O)NCCC5CCN(Cc6ccc(Cn7c(=O)[nH]c8c(N)nc(OCCCC)nc87)cc6)CC5)CC4)cc3)c2n1` [AXC-888, 4-amino-N1,N7-bis(2-(1-(4-((6-amino-2-butoxy-8-oxo-7H-purin-9(8H)-yl)methyl)benzyl)piperidin-4-yl)ethyl)heptanediamide] is 6.33; for `CCCCOc1nc(N)c2[nH]c(=O)n(Cc3ccc(CN4CCC(CCNC(=O)C(C)C)CC4)cc3)c2n1` [AXC-890, N-(2-(1-(4-((6-amino-2-butoxy-8-oxo-7H-purin-9(8H)-yl)methyl)benzyl)piperidin-4-yl)ethyl)isobutyramide] it is 7.82.

The same assay, now with this note: Table 12, TLR7 agonists attached to a linker; read-out: TLR Agonist Payload + Linkers EC50.
Take `CCCCOc1nc(N)c2[nH]c(=O)n(Cc3ccc(CN4CCC(CCNC(=O)CCC(CCC(=O)NCCC5CCN(Cc6ccc(Cn7c(=O)[nH]c8c(N)nc(OCCCC)nc87)cc6)CC5)NC(=O)CON)CC4)cc3)c2n1` [AXC-889, N1,N7-bis(2-(1-(4-((6-amino-2-butoxy-8-oxo-7H-purin-9(8H)-yl)methyl)benzyl)piperidin-4-yl)ethyl)-4-(2-(aminooxy)acetamido)heptanediamide]: the pEC50 is 6.16.

The same assay, now with this note: Table 13, TLR7; read-out: EC50.
With `CCCCOc1nc(N)c2[nH]c(=O)n(Cc3ccc(CN4CCC(CCNC(=O)[C@H](C)N)CC4)cc3)c2n1` [AXC-891, (S)-2-amino-N-(2-(1-(4-((6-amino-2-butoxy-8-oxo-7H-purin-9(8H)-yl)methyl)benzyl)piperidin-4-yl)ethyl)propanamide], the pEC50 was 7.33.
Same read-out and setting: with `CCCCOc1nc(N)c2[nH]c(=O)n(Cc3ccc(CN4CCC(CCNC(=O)[C@@H](N)CCCNC(=N)N)CC4)cc3)c2n1` [AXC-892, (S)-2-amino-N-(2-(1-(4-((6-amino-2-butoxy-8-oxo-7H-purin-9(8H)-yl)methyl)benzyl)piperidin-4-yl)ethyl)-5-guanidinopentanamide] the figure was 7.14; with `CCCCOc1nc(N)c2[nH]c(=O)n(Cc3ccc(CN4CCC(CCN(CC(C)C)C(=O)CCOCCON)CC4)cc3)c2n1` [AXC-893, N-(2-(1-(4-((6-amino-2-butoxy-8-oxo-7H-purin-9(8H)-yl)methyl)benzyl)piperidin-4-yl)ethyl)-3-(2-(aminooxy)ethoxy)-N-isobutylpropanamide], 5.51; with `CCCCOc1nc(N)c2[nH]c(=O)n(Cc3ccc(CN4CCCCC4)cc3)c2n1` [AXC-894, 6-amino-2-butoxy-9-(4-(piperidin-1-ylmethyl)benzyl)-7H-purin-8(9H)-one], 5.78.
Turning to `CCCCOc1nc(N)c2[nH]c(=O)n(Cc3ccc(CN4CCC(CCNC(=O)c5ccc(N)c(OC)c5)CC4)cc3)c2n1` [AXC-895, 4-amino-N-(2-(1-(4-((6-amino-2-butoxy-8-oxo-7H-purin-9(8H)-yl)methyl)benzyl)piperidin-4-yl)ethyl)-3-methoxybenzamide], the pEC50 was 7.96.
With `CCCCOc1nc(N)c2[nH]c(=O)n(Cc3ccc(CN4CCC(CCNC(=O)[C@H](C)NC(=O)CON)CC4)cc3)c2n1` [AXC-896, (S)—N-(2-(1-(4-((6-amino-2-butoxy-8-oxo-7H-purin-9(8H)-yl)methyl)benzyl)piperidin-4-yl)ethyl)-2-(2-(aminooxy)acetamido)propanamide], the pEC50 is 6.49.
Still for that read-out and setting: the figure for `CCCCOc1nc(N)c2[nH]c(=O)n(Cc3ccc(CN4CCC(CCNC(=O)[C@H](CCCNC(=N)N)NC(=O)CON)CC4)cc3)c2n1` [AXC-897, (S)—N-(2-(1-(4-((6-amino-2-butoxy-8-oxo-7H-purin-9(8H)-yl)methyl)benzyl)piperidin-4-yl)ethyl)-2-(2-(aminooxy)acetamido)-5-guanidinopentanamide] is 6.48; for `CCCCOc1nc(N)c2[nH]c(=O)n(Cc3ccc(CN4CCC(C5CCNCC5)CC4)cc3)c2n1` [AXC-898, 9-(4-(4,4′-bipiperidin-1-ylmethyl)benzyl)-6-amino-2-butoxy-7H-purin-8(9H)-oneone] it is 7.30.

The assay is the same for the next values; noted with them: Table 14; read-out: TLR7 EC50.
With `CCCCOc1nc(N)c2[nH]c(=O)n(Cc3ccc(CN4CCCCC4)cc3)c2n1` [AXC-894, 6-amino-2-butoxy-9-(4-(piperidin-1-ylmethyl)benzyl)-7H-purin-8(9H)-one], the pEC50 was 8.68.
In the case of `CCCCOc1cc2c([nH]c(=O)n2Cc2ccc(CN3CCC(CCNC(=O)c4ccc(N)cc4)CC3)cc2)c(N)n1` [AXC-905, 4-amino-N-(2-(1-(4-((4-amino-6-butoxy-2-oxo-2,3-dihydro-1H-imidazo[4,5-c]pyridin-1-yl)methyl)benzyl)piperidin-4-yl)ethyl)benzamidebenzamide], the pEC50 is 8.59.
In the case of `CCCCOc1nc(N)c2[nH]c(=O)n(Cc3ccc(CN4CCC(c5ccc(N)cc5)CC4)cc3)c2n1` [AXC-908, 6-amino-9-(4-((4-(4-aminophenyl)piperidin-1-yl)methyl)benzyl)-2-butoxy-7H-purin-8(9H)-one], the pEC50 is 7.94.
On the same count and under the same terms, the figure for `CCCCOc1nc(N)c2[nH]c(=O)n(Cc3ccc(CN4CCC(C5CCN(C(=O)CCOCCON)CC5)CC4)cc3)c2n1` [AXC-909, 6-amino-9-(4-((1′-(3-(2-(aminooxy)ethoxy)propanoyl)-4,4′-bipiperidin-1-yl)methyl)benzyl)-2-butoxy-7H-purin-8(9H)-one] is 7.14.
Regarding `CCCCc1nc2c(N)nc3ccccc3c2n1CCCCNC(=O)CON` [AXC-910, reference compound], the pEC50 was 5.59.

The same assay, now with this note: Table 18, TLR7, PEG shielding; read-out: EC50.
On to `CCCCOc1nc(N)c2[nH]c(=O)n(Cc3ccc(CN4CCC(CCNC(=O)[C@@H](N)CCCCNC(=O)CON)CC4)cc3)c2n1` [AXC-913, (S)-2-amino-N-(2-(1-(4-((6-amino-2-butoxy-8-oxo-7,8-dihydro-9H-purin-9-yl)methyl)benzyl)piperidin-4-yl)ethyl)-6-(2-(aminooxy)acetamido)hexanamide], for which the pEC50 was 7.53.
Turning to `CCCCOc1nc(N)c2[nH]c(=O)n(Cc3ccc(CN4CCC(CCNC(=O)[C@H](CCCCNC(=O)CON)NC(=O)[C@H](C)NC(=O)[C@@H](N)C(C)C)CC4)cc3)c2n1` [AXC-923, (S)—N-(2-(1-(4-((6-amino-2-butoxy-8-oxo-7,8-dihydro-9H-purin-9-yl)methyl)benzyl)piperidin-4-yl)ethyl)-2-((S)-2-((S)-2-amino-3-methylbutanamido)propanamido)-6-(2-(aminooxy)acetamido)hexanamide], the pEC50 was 6.36.
Same read-out and setting: the figure for `CCCCOc1nc(N)c2[nH]c(=O)n(Cc3ccc(CN4CCC(CCNC(=O)[C@H](CCCCNC(=O)CON)NC(=O)CCOCCOCCOCCOCCOCCOCCOCCOCCOCCOCCOCCOCCOCCOCCOCCOCCOCCOCCOCCOCCOCCOCCOCCOC)CC4)cc3)c2n1` [AXC-924, (S)—N-(2-(1-(4-((6-amino-2-butoxy-8-oxo-7,8-dihydro-9H-purin-9-yl)methyl)benzyl)piperidin-4-yl)ethyl)-6-(2-(aminooxy)acetamido)-2-PEG24-amidohexanamide] is 6.40.
Same read-out and setting: with `CCCCOc1nc(N)c2[nH]c(=O)n(Cc3ccc(CN4CCC(CCNC(=O)[C@H](CCCCNC(=O)CON)NC(=O)OCc5ccc(NC(=O)[C@H](C)NC(=O)[C@@H](NC(=O)CCOCCOCCOCCOCCOCCOCCOCCOCCOCCOCCOCCOCCOCCOCCOCCOCCOCCOCCOCCOCCOCCOCCOCCOC)C(C)C)cc5)CC4)cc3)c2n1` [AXC-925, 4-((S)-2-((S)-3-methyl-2-PEG24-amidobutanamido)propanamido)benzyl ((S)-1-((2-(1-(4-((6-amino-2-butoxy-8-oxo-7,8-dihydro-9H-purin-9-yl)methyl)benzyl)piperidin-4-yl)ethyl)amino)-6-(2-(aminooxy)acetamido)-1-oxohexan-2-yl)carbamate] the figure was 5.80.

The same assay, now with this note: text to Table 14, TLR7; read-out: EC50.
Turning to `CCCCOc1nc(N)c2[nH]c(=O)n(Cc3ccc(CN4CCCCC4)cc3)c2n1` [AXC-894, 6-amino-2-butoxy-9-(4-(piperidin-1-ylmethyl)benzyl)-7H-purin-8(9H)-one], the pEC50 is more than 8.00.

A word on the pEC50: it is the EC50 on a negative log10 scale, so that one unit is a factor of ten.
